Source: US20150105252A1, “SUBSTITUTED PYRAZOLES AS HERBICIDES” (E I DU PONT DE NEMOURS AND COMPANY, priority 2013, published 2015)

Experiments:
barnyardgrass = assay: Test F postemergence; type: in vivo, Echinochloa crus-galli; conditions: scale 0 to 100
Source text: (§1) Seeds of plant species selected from corn (Zea mays), soybean (Glycine max), velvetleaf (Abutilon theophrasti), lambsquarters (Chenopodium album), wild poinsettia (Euphorbia heterophylla), pigweed, palmer (palmer pigweed, Amaranthus palmeri), common waterhemp (Amaranthus rudis), surinam grass (Brachiaria decumbens), large crabgrass (Digitaria sanguinalis), crabgrass, Brazil (Brazilian crabgrass, Digitaria horizontalis), fall panicum (Panicum dichotomiflorum), giant foxtail (Setaria faberii), green foxtail (Setaria viridis), goosegrass (Eleusine indica), johnsongrass (Sorghum halepense), common ragweed (Ambrosia elation), barnyardgrass (Echinochloa crus-galli), southern sandbur (Cenchrus echinatus), arrowleaf sida (Sida rhombifolia), Italian ryegrass (Lolium multiflorum), dayflower, VA (Virginia (VA) dayflower, Commelina virginica), field bindweed (Convolvulus arvensis), cocklebur (common cocklebur, Xanthium strumarium), morningglory (Ipomoea coccinea), nightshade (eastern black nightshade, Solanum ptycanthum), kochia (Kochia scoparia), yellow nutsedge (Cyperus esculentus), and hairy beggarticks (Bidens pilosa), were planted into a silt loam soil and treated preemergence with test chemicals formulated in a non-phytotoxic solvent mixture which included a surfactant.
(§2) At the same time, plants from these crop and weed species and also horseweed (Canada horseweed, Conyza canadensis), smartweed (ladysthumb smartweed, Polygonum persicaria), waterhemp_RES1, (ALS & Triazine resistant common waterhemp, Amaranthus rudis), and waterhemp_RES2, (ALS & HPPD resistant common waterhemp, Amaranthus rudis) were treated with postemergence applications of test chemicals formulated in the same manner. Plants ranged in height from 2 to 18 cm for postemergence treatments (1- to 4-leaf stage). Treated plants and controls were maintained in a greenhouse for 14 to 21 days, after which time all species were compared to controls and visually evaluated. Plant response ratings, summarized in Table F, are based on a scale of 0 to 100 where 0 is no effect and 100 is complete control. A dash (-) response means no test result.

[1] = tested on: waterhemp_RES1 (ALS & Triazine resistant common waterhemp); assay: Test F postemergence; type: in vivo, Amaranthus rudis; conditions: scale 0 to 100
Source text: as §1, §2

common waterhemp = assay: Test F postemergence; type: in vivo, Amaranthus rudis; conditions: scale 0 to 100
Source text: as §1, §2

[2] = tested on: waterhemp_RES2 (ALS & HPPD resistant common waterhemp); assay: Test F postemergence; type: in vivo, Amaranthus rudis; conditions: scale 0 to 100
Source text: as §1, §2

quackgrass = assay: Test E preemergence; type: in vivo, Elytrigia repens; conditions: 21 days, scale 0 to 100
Source text: (§3) Seeds of plant species selected from bermudagrass (Cynodon dactylon), Surinam grass (Brachiaria decumbens), crabgrass, large (large crabgrass, Digitaria sanguinalis), crabgrass, naked (naked crabgrass, Digitaria nuda), foxtail, green (green foxtail, Setaria viridis), johnsongrass (Sorghum halepense), kochia (Kochia scoparia), morningglory (pitted morningglory, Ipomoea lacunosa), nutsedge, purple (purple nutsedge, Cyperus rotundus), ragweed (common ragweed, Ambrosia elation), mustard, black (black mustard, Brassica nigra), guineagrass (Panicum maximum), dallisgrass (Paspalum dilatatum), barnyardgrass (Echinochloa crus-galli), sandbur (southern sandbur, Cenchrus echinatus), sowthistle (common sowthistle, Sonchus oleraceous), ryegrass, Italian (Italian ryegrass, Lolium multiflorum), signalgrass (broadleaf signalgrass, Brachiaria platyphylla), dayflower, VA (Virginia (VA) dayflower, Commelina virginica), bluegrass (annual bluegrass, Poa annua), quackgrass (Elytrigia repens), mallow (common mallow, Malva sylvestris), buckwheat, wild (wild buckwheat, Polygonum convolvulus), leafy spurge (Euphorbia esula), common chickweed (Stellaria media), wild poinsettia (Euphorbia heterophylla), pigweed, palmer (palmer pigweed, Amaranthus palmeri), and pigweed (redroot pigweed, Amaranthus retroflexus) were planted into a blend of loam soil and sand and treated preemergence with test chemicals formulated in a non-phytotoxic solvent mixture which included a surfactant.
(§4) Treated plants and controls were maintained in a greenhouse for 21 days, after which time all species were compared to controls and visually evaluated. Plant response ratings, summarized in Table E, are based on a scale of 0 to 100 where 0 is no effect and 100 is complete control. A dash (-) response means no test result.

horseweed = assay: Test F postemergence; type: in vivo, Conyza canadensis; conditions: scale 0 to 100
Source text: as §1, §2

common chickweed = assay: Test E preemergence; type: in vivo, Stellaria media; conditions: 21 days, scale 0 to 100
Source text: as §3, §4

Italian ryegrass = assay: Test A postemergence; type: in vivo, Lolium multiflorum
Outline: (§5)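 Growth medium: loam soil blended with sand. Preemergence treatment used a directed soil spray right after planting; postemergence treatment targeted seedlings at one to two leaves (2–10 cm height). Response was judged by eye relative to untreated plants about 10 days later on a 0–100 control scale.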

kochia = assay: Test A preemergence; type: in vivo, Kochia scoparia
Outline: as §5

[3] = Postemergence, 500 g ai/ha, 0 to 100 scale (0 no effect, 100 complete control)
[4] = postemergence, 125 g ai/ha, about 10 days, visual rating on 0 to 100 scale (0 no effect, 100 complete control)
[5] = 125 g ai/ha, visual injury, 0 to 100 scale, approx. 10 days
[6] = 500 g ai/ha, visual injury after approx. 10 days, 0 to 100 scale (0 no effect, 100 complete control)

SMILES	Plant response rating, Barnyardgrass (barnyardgrass; Postemergence, 31 g ai/ha)	Plant response rating, Barnyardgrass (barnyardgrass; Postemergence, 125 g ai/ha)	Plant response rating, Barnyardgrass (barnyardgrass; Postemergence, 250 g ai/ha)	Plant response rating, Barnyardgrass (barnyardgrass; postemergence, 62 g ai/ha)	Plant response rating, Barnyardgrass (barnyardgrass; postemergence, 500 g ai/ha)	Plant response rating, Waterhemp_RES1 ([1]; Postemergence, 31 g ai/ha)	Plant response rating, Waterhemp_RES1 ([1]; Postemergence, 125 g ai/ha)	Plant response rating, Waterhemp_RES1 ([1]; Postemergence, 250 g ai/ha)	Plant response rating, Waterhemp_RES1 ([1]; postemergence, 62 g ai/ha)	Plant response rating, Waterhemp_RES1 ([1]; postemergence, 500 g ai/ha)	Plant response rating, Common Waterhemp (common waterhemp; Postemergence, 31 g ai/ha)	Plant response rating, Common Waterhemp (common waterhemp; Postemergence, 125 g ai/ha)	Plant response rating, Common Waterhemp (common waterhemp; Postemergence, 250 g ai/ha)	Plant response rating, Common Waterhemp (common waterhemp; postemergence, 62 g ai/ha)	Plant response rating, Common Waterhemp (common waterhemp; postemergence, 500 g ai/ha)	Plant response rating, Waterhemp_RES2 ([2]; Postemergence, 31 g ai/ha)	Plant response rating, Waterhemp_RES2 ([2]; Postemergence, 125 g ai/ha)	Plant response rating, Quackgrass (quackgrass; 16 g ai/ha)	Plant response rating, Quackgrass (quackgrass; 31 g ai/ha)	Plant response rating, Quackgrass (quackgrass; 62 g ai/ha)	also measured
CCc1cc(C(=O)NCC(F)(F)F)nn1Cc1ccnc(C(F)(F)F)c1 [Compound 78, 5-ethyl-N-(2,2,2-trifluoroethyl)-1-[[(2-trifluoromethyl)-4-pyridinyl]methyl]-1H-pyrazole-3-carboxamide]	5	40	70	30	90	60	60	65	70	100	70	75	70	60	98	60	70	60	95	100	Plant response rating, Waterhemp_RES2 ([2]; Postemergence, 250 g ai/ha): 75; Plant response rating, Waterhemp_RES2 ([2]; postemergence, 62 g ai/ha): 65; Plant response rating, Waterhemp_RES2 ([2]; postemergence, 500 g ai/ha): 95; Plant response rating, Quackgrass (quackgrass; 125 g ai/ha): 100; Plant response rating, Quackgrass (quackgrass; 250 g ai/ha): 100; Plant response rating, Horseweed (horseweed; Postemergence, 31 g ai/ha): 25; Plant response rating, Horseweed (horseweed; Postemergence, 125 g ai/ha): 40; Plant response rating, Horseweed (horseweed; Postemergence, 250 g ai/ha): 50; Plant response rating, Horseweed (horseweed; postemergence, 62 g ai/ha): 30; Plant response rating, Horseweed (horseweed; postemergence, 500 g ai/ha): 75
CCc1cc(C(=O)NC(C)C)nn1Cc1ccnc(C(F)(F)F)c1 [Compound 103]	–	–	–	–	–	–	–	–	–	–	–	–	–	–	–	–	–	95	98	100	Plant response rating, Common Chickweed (common chickweed; 16 g ai/ha): 98; Plant response rating, Common Chickweed (common chickweed; 31 g ai/ha): 100; Plant response rating, Common Chickweed (common chickweed; 62 g ai/ha): 100; Plant response rating, Common Chickweed (common chickweed; 125 g ai/ha): 100; Plant response rating, Common Chickweed (common chickweed; 250 g ai/ha): 100; Plant response rating, Quackgrass (quackgrass; 125 g ai/ha): 100; Plant response rating, Quackgrass (quackgrass; 250 g ai/ha): 100
CCOc1cc(C(=O)NCC(F)(F)F)nn1Cc1ccnc(C(F)(F)F)c1 [Compound 104]	0	30	80	10	95	70	90	75	75	85	75	85	85	80	90	80	95	75	95	95	Plant response rating, Common Chickweed (common chickweed; 16 g ai/ha): 100; Plant response rating, Common Chickweed (common chickweed; 31 g ai/ha): 100; Plant response rating, Common Chickweed (common chickweed; 62 g ai/ha): 100; Plant response rating, Common Chickweed (common chickweed; 125 g ai/ha): 100; Plant response rating, Common Chickweed (common chickweed; 250 g ai/ha): 100; Plant response rating, Waterhemp_RES2 ([2]; Postemergence, 250 g ai/ha): 80; Plant response rating, Waterhemp_RES2 ([2]; postemergence, 62 g ai/ha): 80; Plant response rating, Waterhemp_RES2 ([2]; postemergence, 500 g ai/ha): 85; Plant response rating, Quackgrass (quackgrass; 125 g ai/ha): 98; Plant response rating, Quackgrass (quackgrass; 250 g ai/ha): 100; Plant response rating, Horseweed (horseweed; Postemergence, 31 g ai/ha): 25; Plant response rating, Horseweed (horseweed; Postemergence, 125 g ai/ha): 35; Plant response rating, Horseweed (horseweed; Postemergence, 250 g ai/ha): 35; Plant response rating, Horseweed (horseweed; postemergence, 62 g ai/ha): 30; Plant response rating, Horseweed (horseweed; postemergence, 500 g ai/ha): 45
CCONC(=O)c1cc(CC)n(Cc2cc(C(F)(F)F)no2)n1 [Compound 125]	–	–	–	–	–	–	–	–	–	–	–	–	–	–	–	–	–	–	–	–	Italian Ryegrass plant response rating (Italian ryegrass; [3]): 80; Italian Ryegrass plant response rating (Italian ryegrass; [4]): 20; Kochia plant response rating (kochia; [5]): 40; Kochia plant response rating (kochia; [6]): 100
CCOc1cc(C(=O)NC2CC2)nn1Cc1ccnc(OC(F)F)c1 [Compound 133]	–	–	–	–	–	–	–	–	–	–	–	–	–	–	–	–	–	–	–	–	Italian Ryegrass plant response rating (Italian ryegrass; [3]): 80; Italian Ryegrass plant response rating (Italian ryegrass; [4]): 60; Kochia plant response rating (kochia; [5]): 100; Kochia plant response rating (kochia; [6]): 100
CCOc1cc(C(=O)NC(C)C)nn1Cc1ccnc(C(F)(F)F)c1 [Compound 188]	0	50	60	20	95	60	50	80	70	85	60	80	80	70	90	65	50	–	–	–	Plant response rating, Waterhemp_RES2 ([2]; Postemergence, 250 g ai/ha): 50; Plant response rating, Waterhemp_RES2 ([2]; postemergence, 62 g ai/ha): 70; Plant response rating, Waterhemp_RES2 ([2]; postemergence, 500 g ai/ha): 60; Plant response rating, Horseweed (horseweed; Postemergence, 31 g ai/ha): 20; Plant response rating, Horseweed (horseweed; Postemergence, 125 g ai/ha): 30; Plant response rating, Horseweed (horseweed; Postemergence, 250 g ai/ha): 40; Plant response rating, Horseweed (horseweed; postemergence, 62 g ai/ha): 30; Plant response rating, Horseweed (horseweed; postemergence, 500 g ai/ha): 50
CCOc1cc(C(=O)NC2CC2)nn1Cc1ccnc(C(F)(F)F)c1 [Compound 189]	–	–	–	–	–	–	–	–	–	–	–	–	–	–	–	–	–	35	75	100	Plant response rating, Quackgrass (quackgrass; 4 g ai/ha): 0; Plant response rating, Quackgrass (quackgrass; 8 g ai/ha): 0
CCc1cc(C(=O)NCC(F)(F)F)nn1Cc1cc(OC(F)F)nn1C [Compound 206]	–	–	–	–	–	–	–	–	–	–	–	–	–	–	–	–	–	–	–	–	Italian Ryegrass plant response rating (Italian ryegrass; Postemergence, 125 g ai/ha, 0 to 100 scale, 0 no effect, 100 complete control): 0; Italian Ryegrass plant response rating (Italian ryegrass; [3]): 50; Kochia plant response rating (0 to 100 scale) (kochia; 125 g ai/ha, visual injury approx. 10 days after treatment): 50
